# Assay results reported in US7026315B1, “Fungicide mixtures which are based on derivatives of morpholine or piperidine and derivatives oxime ether” (BASF Aktiengesellschaft, priority 1998, dated 2006).
# Test system: mildew of wheat (Erysiphe graminis forma specialis tritici)
# Experiment: Activity against mildew of wheat (protective spray on potted wheat seedlings)
# Type: in vivo
# Details: wheat seedlings cv. Kanzler, inoculated 24 h after spraying, evaluated after 7 days
# Procedure: The active compounds, separately or together, are formulated as a 10% emulsion in a mixture of 63% by weight of cyclohexanone and 27% by weight of emulsifier, and diluted with water to the desired concentration.
# Evaluation is carried out by determining the infected leaf areas in percent. These percentages are converted into efficacies. The efficacy (W) is calculated as follows using Abbot's formula: W=(1−α/β)·100 α corresponds to the fungal infection of the treated plants in % and β corresponds to the fungal infection of the untreated (control) plants in %
# An efficacy of 0 means that the infection level of the treated plants corresponds to that of the untreated control plants; an efficacy of 100 means that the treated plants were not infected.
# The expected efficacies of the mixtures of the active compounds were determined using Colby's formula [F. S. Colby, Weeds 15, 20–22 (1967)] and compared with the observed efficacies. • Colby's formula: E=x+y−x·y/100 E expected efficacy, expressed in % of the untreated control, when using the mixture of the active compounds A and B at the concentrations a and b x efficacy, expressed in % of the untreated control, when using active compound A at a concentration of a y efficacy, expressed in % of the untreated control, when using active compound B at a concentration of b.
# Leaves of potted wheat seedlings cv. “Kanzler” were sprayed to runoff point with an aqueous preparation of active compound which was prepared from a stock solution comprising 10% of active compound, 63% of cyclohexanone and 27% of emulsifier and, 24 h after the spray coating had dried on, dusted with spores of mildew of wheat (Erysiphe graminis forma specialis tritici). The test plants were subsequently placed in climatized chambers at 20–24° C. and 60–90% relative atmospheric humidity for 7 days. The extent of the development of the infection on the leaves was then determined visually.
# The visually determined values for the percentage of infected leaf areas were converted into efficacies as % of the untreated control. An efficacy of 0 means the same degree of infection as in the untreated control, an efficacy of 100 means 0% infection. The expected efficacies for active compound combinations were determined using Colby's formula (Colby, S. R. “Calculating synergistic and antagonistic responses of herbicide combinations”, Weeds, 15 (1967), 20–22) and compared with the observed efficacies.
SMILES,Efficacy in % of the untreated control (0.25 ppm) [%],Efficacy in % of the untreated control (1 ppm) [%]
"CC(Cc1ccc(C(C)(C)C)cc1)CN1C[C@@H](C)O[C@@H](C)C1 (stereo partly shown) [Compound I.a, Fenpropimorph]",55,
"CC(Cc1ccc(C(C)(C)C)cc1)CN1CCCCC1 (stereo not shown) [Compound I.b, Fenpropidin]",55,
"CCCCCCCCCCCCCN1CC(C)OC(C)C1 (stereo not shown) [Compound I.c, Tridemorph]",0,0
